Measured values taken from the supplement of paper PMC10307832.

Key:
Test in all cases: relative viability (nuclei count vs DMSO), 5 days (fraction); higher = more cells survive
Neratinib + Luminespib = compound: CCOc1cc2ncc(C#N)c(Nc3ccc(OCc4ccccn4)c(Cl)c3)c2cc1NC(=O)/C=C/CN(C)C [Neratinib] + CCNC(=O)c1noc(-c2cc(C(C)C)c(O)cc2O)c1-c1ccc(CN2CCOCC2)cc1 [Luminespib] (partner 0.01 µM)
In short: (§1)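 Lung cancer cell lines in 1536-well plates were dosed by pin tool the day after seeding, either with one drug alone or with a fixed anchor-drug dose plus five library-drug doses (not always all listed) in √10 steps. After 5 days, cells were fixed and their nuclei stained in one step (final 0.05% Triton X-100, 1% formaldehyde, 1 ug/ml Hoechst), then counted on 4× images. Relative viability is the nuclei count in treated wells divided by that in vehicle wells. Values are medians of duplicate plates.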

Neratinib + Dasatinib = compound: CCOc1cc2ncc(C#N)c(Nc3ccc(OCc4ccccn4)c(Cl)c3)c2cc1NC(=O)/C=C/CN(C)C [Neratinib] + Cc1nc(Nc2ncc(C(=O)Nc3c(C)cccc3Cl)s2)cc(N2CCN(CCO)CC2)n1 [Dasatinib] (partner 0.075 µM)
In short: as §1

Neratinib + Phenformin = compound: CCOc1cc2ncc(C#N)c(Nc3ccc(OCc4ccccn4)c(Cl)c3)c2cc1NC(=O)/C=C/CN(C)C [Neratinib] + N=C(N)NC(=N)NCCc1ccccc1 [Phenformin] (partner 250 µM)
In short: as §1

Neratinib + OSI-027 = compound: CCOc1cc2ncc(C#N)c(Nc3ccc(OCc4ccccn4)c(Cl)c3)c2cc1NC(=O)/C=C/CN(C)C [Neratinib] + COc1cccc2cc(-c3nc([C@H]4CC[C@H](C(=O)O)CC4)n4ncnc(N)c34)[nH]c12 [OSI-027] (partner 0.5 µM)
In short: as §1

Neratinib + Foretinib = compound: CCOc1cc2ncc(C#N)c(Nc3ccc(OCc4ccccn4)c(Cl)c3)c2cc1NC(=O)/C=C/CN(C)C [Neratinib] + COc1cc2c(Oc3ccc(NC(=O)C4(C(=O)Nc5ccc(F)cc5)CC4)cc3F)ccnc2cc1OCCCN1CCOCC1 [Foretinib] (partner 0.25 µM)
In short: as §1

Neratinib + Tozasertib = compound: CCOc1cc2ncc(C#N)c(Nc3ccc(OCc4ccccn4)c(Cl)c3)c2cc1NC(=O)/C=C/CN(C)C [Neratinib] + Cc1cc(Nc2cc(N3CCN(C)CC3)nc(Sc3ccc(NC(=O)C4CC4)cc3)n2)n[nH]1 [Tozasertib] (partner 0.1 µM)
In short: as §1

Neratinib = compound: CCOc1cc2ncc(C#N)c(Nc3ccc(OCc4ccccn4)c(Cl)c3)c2cc1NC(=O)/C=C/CN(C)C [Neratinib]
In short: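 Viability was read as treated-well nuclei divided by vehicle-well nuclei, using the median across plates. Lung cancer cell lines in 1536-well plates were kept overnight at 37 °C, pinned with five √10-spaced library-drug doses, and after 5 days were Hoechst-stained, imaged at 4× and counted in MetaXpress. Plates passed only with control CV below 25% and at least one doubling.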

NCI-H1623
relative viability (Neratinib + Luminespib; first compound 0.01 µM): 0.663
relative viability (Neratinib + Luminespib; first compound 0.03162 µM): 0.566
relative viability (Neratinib + Luminespib; first compound 0.1 µM): 0.401
relative viability (Neratinib + Luminespib; first compound 0.3162 µM): 0.355
relative viability (Neratinib + Luminespib; first compound 1 µM): 0.341
relative viability (Neratinib + Dasatinib; first compound 0.01 µM): 0.578
relative viability (Neratinib + Dasatinib; first compound 0.03162 µM): 0.538
relative viability (Neratinib + Dasatinib; first compound 0.1 µM): 0.464
relative viability (Neratinib + Dasatinib; first compound 0.3162 µM): 0.432
relative viability (Neratinib + Dasatinib; first compound 1 µM): 0.26
relative viability (Neratinib + Phenformin; first compound 0.01 µM): 0.598
relative viability (Neratinib + Phenformin; first compound 0.03162 µM): 0.589
relative viability (Neratinib + Phenformin; first compound 0.1 µM): 0.509
relative viability (Neratinib + Phenformin; first compound 0.3162 µM): 0.337
relative viability (Neratinib + Phenformin; first compound 1 µM): 0.236
relative viability (Neratinib + OSI-027; first compound 0.01 µM): 0.496
relative viability (Neratinib + OSI-027; first compound 0.03162 µM): 0.376
relative viability (Neratinib + OSI-027; first compound 0.1 µM): 0.365
relative viability (Neratinib + OSI-027; first compound 0.3162 µM): 0.213
relative viability (Neratinib + OSI-027; first compound 1 µM): 0.261
relative viability (Neratinib + Foretinib; first compound 0.01 µM): 0.822
relative viability (Neratinib + Foretinib; first compound 0.03162 µM): 0.856
relative viability (Neratinib + Foretinib; first compound 0.1 µM): 0.621
relative viability (Neratinib + Foretinib; first compound 0.3162 µM): 0.31
relative viability (Neratinib + Foretinib; first compound 1 µM): 0.241
relative viability (Neratinib + Tozasertib; first compound 0.01 µM): 0.477
relative viability (Neratinib + Tozasertib; first compound 0.03162 µM): 0.424
relative viability (Neratinib + Tozasertib; first compound 0.3162 µM): 0.224
relative viability (Neratinib + Tozasertib; first compound 1 µM): 0.229
relative viability (Neratinib; 0.03162 µM): 0.903
relative viability (Neratinib; 0.1 µM): 0.755
relative viability (Neratinib; 0.3162 µM): 0.333
relative viability (Neratinib; 1 µM): 0.271
